Assay results as given in PMC7699381, “Rare-Earth Metal Complexes of the Antibacterial Drug Oxolinic Acid: Synthesis, Characterization, DNA/Protein Binding and Cytotoxicity Studies” (Molecules, 2020).
Like-named read-outs stand apart in the source and are kept apart here.

How the values were obtained:
[1] = tested on: MDA-MB 231 (human breast adenocarcinoma); assay: MTS cytotoxicity assay, MDA-MB 231 cells; type: cell-based
Protocol: (§1) For the evaluation of the cytotoxic effects of the complexes and ligand two human cancer cell lines were used, namely MDA-MB 231 (human breast adenocarcinoma) and LoVo (human colon adenocarcinoma); a normal cell line, human umbilical vein endothelial cells (HUVEC), was used as a reference. […] After 24 h and 48 h, respectively, cell viability was evaluated through MTS assay (data shown in Figures S16–S18) and the IC50 values were calculated (Table 5). The cytotoxicity assay is based on the ability of metabolically active cells to reduce MTS, a yellow tetrazolium salt, to the colored formazan, soluble in the culture medium; the concentration of formazan can be spectrophotometrically determined. […] PES is a cationic dye with high chemical stability that binds to MTS and forms a stable solution. […] The reduced MTS to formazan was spectrophotometrically measured at λ = 492 nm. The test was run on two cancer cell lines, LoVo and MDA-MB 231, and on a normal cell line, HUVEC. […] Cell viability data were obtained in triplicate (n = 3) and expressed as mean values ± standard deviations (SD). […] All assays were performed in 96-well microtiter plates with flat bottom (Falcon), using CellTiter 96 Aqueous One Solution Cell Proliferation Assay (Promega), an MTS-based colorimetric assay. The formazan was spectrophotometrically measured using the Tecan GENios Spectrophotometer.

[2] = tested on: LoVo (human colon adenocarcinoma); assay: MTS cytotoxicity assay, LoVo cells; type: cell-based; conditions: 48 h of incubation
Protocol: as §1

[3] = tested on: HUVEC (normal human umbilical vein endothelial cells); assay: MTS cytotoxicity assay, HUVEC normal cells; type: cell-based; conditions: 48 h of incubation
Protocol: as §1

EB-DNA system (CT-DNA) = assay: Competitive binding assay with ethidium bromide (EB) through fluorescence spectroscopy; set-up: species or system calf; conditions: 10 µM CT-DNA, 2 µM EB; for Ksv (Stern-Volmer quenching constant, EB-DNA system): 0–40 µM compound, λex 500 nm; for K50 (EB Displacement Assay): concentration corresponding to 50% binding
Description: The manner of binding to the DNA macromolecule can be investigated through competitive binding studies with ethidium bromide (3,8-diamino-5-ethyl-6-phenylphenanthridinium bromide), a fluorescent dye; due to its aromatic ring, it can intercalate between two adjacent base pairs in the DNA structure and form a complex which emits fluorescent light; displacing EB results in a quenching effect. The Stern-Volmer constant (KSV) and the dissociation constant (K50) have been calculated from the resulting data.
Competitive binding studies were carried out on a Jasco FP 6500 fluorometer at room temperature, using quartz cells of 1 cm path-length. The fluorescence spectra were recorded on 1.6 mL samples containing 10 µM CT-DNA and 2 µM EB in the absence and presence of increasing amounts (0–40 µM with an increment of 5 µM) of complexes and free ligands, respectively, after being kept in contact for 10 min at room temperature, under continuous stirring and in the dark. The excitation wavelength used was 500 nm and the spectra was recorded in the 520–800 nm range. Two control samples were used, the first one containing DMSO, DNA and EB and the second one just the complex.
Data from the assay can be interpreted using the classical Stern-Volmer equation (Equation (3)):(3) F0/F=1+ KSV·[Q] where F0 and F are the fluorescence intensities of the EB-DNA samples in the absence and presence of the tested compounds and [Q] is the concentration of the compound; KSV is the Stern-Volmer constant and can be calculated from the plot of F0/F vs. [Q] as the slope.
The ratio of binding relative to the control sample exposed only to DMSO was plotted against the logarithm of concentration. The data points were fitted using the modified Hill function with offset (Origin®) (Equation (4)):(4) y=A1+(A2−A1)×x^n/K50^n+x^n where y is the ratio of binding (F/F0) and x is the concentration, A1 is the minimum of y values, A2 is the maximum of y values, K50 is the concentration corresponding to 50% binding and n is the Hill coefficient.

[4] = molecular target: T1, Human serum albumin (HSA) (Homo sapiens, UniProt P02768)
T1 sequence (P02768 25-609): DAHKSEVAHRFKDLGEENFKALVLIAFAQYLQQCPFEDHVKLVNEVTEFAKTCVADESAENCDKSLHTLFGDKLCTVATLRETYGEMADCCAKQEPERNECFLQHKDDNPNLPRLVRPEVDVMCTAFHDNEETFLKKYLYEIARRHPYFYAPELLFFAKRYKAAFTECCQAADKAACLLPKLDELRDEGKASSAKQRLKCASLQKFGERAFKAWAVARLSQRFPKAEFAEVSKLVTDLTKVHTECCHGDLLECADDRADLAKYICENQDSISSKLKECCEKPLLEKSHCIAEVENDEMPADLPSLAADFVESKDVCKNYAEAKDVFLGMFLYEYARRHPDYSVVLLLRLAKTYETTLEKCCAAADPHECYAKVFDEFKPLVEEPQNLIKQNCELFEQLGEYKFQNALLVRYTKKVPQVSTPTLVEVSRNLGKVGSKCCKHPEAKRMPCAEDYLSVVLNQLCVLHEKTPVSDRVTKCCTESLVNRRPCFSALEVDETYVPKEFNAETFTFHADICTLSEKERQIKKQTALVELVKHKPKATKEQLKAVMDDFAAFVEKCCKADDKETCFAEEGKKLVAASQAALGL

[5] = molecular target: T1, Human serum albumin (HSA); assay: Fluorescence quenching of human serum albumin; conditions: for Ka (association binding constant), HSA / n (Hill Coefficient), HSA / n (Number of Binding Sites), HSA / Ksv (Stern-Volmer constant), HSA / Kq (bimolecular quenching constant), HSA / fa (fraction of fluorophore accessible to the quencher), HSA / Kd: 298 K; for Ksv (Stern-Volmer constant), HSA: 0–8 µM compound, pH 7.4; for Kq (bimolecular quenching constant), HSA: from KSV = Kq τ0; for fa (fraction of fluorophore accessible to the quencher), HSA: modified Stern-Volmer; for Kd: HSA
Apo-transferrin (apo-Tf) = molecular target: T2, Apo-transferrin (apo-Tf) (Homo sapiens, UniProt P02787); assay: Fluorescence quenching of apo-transferrin; type: binding; conditions: for Ka (association binding constant), apo-Tf / n (Hill Coefficient), apo-Tf / n (Number of Binding Sites), apo-Tf / Ksv (Stern-Volmer constant), apo-Tf / Kq (bimolecular quenching constant), apo-Tf / fa (fraction of fluorophore accessible to the quencher), apo-Tf / Kd: 298 K; for Ksv (Stern-Volmer constant), apo-Tf: 0–8 µM compound, pH 7.4; for Kq (bimolecular quenching constant), apo-Tf: from KSV = Kq τ0; for fa (fraction of fluorophore accessible to the quencher), apo-Tf: modified Stern-Volmer
T2 construct: purchased Sigma Aldrich Chemical Co. (Schnelldorf, Germany)
T2 sequence (P02787 20-698): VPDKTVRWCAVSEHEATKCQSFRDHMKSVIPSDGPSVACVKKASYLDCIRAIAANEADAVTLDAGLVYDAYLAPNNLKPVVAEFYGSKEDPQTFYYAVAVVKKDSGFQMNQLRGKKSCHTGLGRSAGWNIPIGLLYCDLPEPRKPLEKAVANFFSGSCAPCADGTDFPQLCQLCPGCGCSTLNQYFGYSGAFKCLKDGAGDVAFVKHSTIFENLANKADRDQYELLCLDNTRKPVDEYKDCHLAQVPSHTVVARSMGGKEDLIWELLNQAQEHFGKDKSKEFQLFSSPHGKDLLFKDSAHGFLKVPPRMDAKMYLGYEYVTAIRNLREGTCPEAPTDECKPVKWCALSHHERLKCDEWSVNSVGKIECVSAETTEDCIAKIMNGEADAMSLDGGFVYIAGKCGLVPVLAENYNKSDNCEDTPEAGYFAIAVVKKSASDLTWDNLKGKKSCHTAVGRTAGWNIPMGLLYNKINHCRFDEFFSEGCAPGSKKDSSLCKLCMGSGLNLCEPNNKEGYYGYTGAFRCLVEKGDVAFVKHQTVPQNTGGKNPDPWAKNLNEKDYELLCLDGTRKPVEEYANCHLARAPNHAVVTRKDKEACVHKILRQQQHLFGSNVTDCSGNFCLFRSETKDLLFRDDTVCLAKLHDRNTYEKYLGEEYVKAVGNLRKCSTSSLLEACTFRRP

[6] = Homo sapiens, MDA-MB-231, 48 h of incubation

Row | Compound | IC50 [1, 6] [µM] | IC50 [2] [µM] | IC50 [3] [µM] | Ksv (Stern-Volmer quenching constant, EB-DNA system) (EB-DNA system (CT-DNA)) | K50 (EB Displacement Assay) (EB-DNA system (CT-DNA)) [µM] | IC50 ([1]; 48 h of incubation) [µM] | Kd [4] [µM] | Ka (association binding constant), HSA [5] | n (Hill Coefficient), HSA [5] | n (Number of Binding Sites), HSA [5] | Ksv (Stern-Volmer constant), HSA ([5]; 2.5 µM HSA) | Kq (bimolecular quenching constant), HSA [5] [M⁻¹ s⁻¹] | fa (fraction of fluorophore accessible to the quencher), HSA [5] | Ka (association binding constant), apo-Tf (Apo-transferrin (apo-Tf)) | n (Hill Coefficient), apo-Tf (Apo-transferrin (apo-Tf)) | n (Number of Binding Sites), apo-Tf (Apo-transferrin (apo-Tf)) | Ksv (Stern-Volmer constant), apo-Tf (Apo-transferrin (apo-Tf); 1 µM apo-Tf) | Kq (bimolecular quenching constant), apo-Tf (Apo-transferrin (apo-Tf)) [M⁻¹ s⁻¹] | fa (fraction of fluorophore accessible to the quencher), apo-Tf (Apo-transferrin (apo-Tf)) | Kd (Apo-transferrin (apo-Tf); read-out: Kd, apo-Tf) [µM] | other results
1 | COc1cccc2c1C(=O)c1c(O)c3c(c(O)c1C2=O)C[C@@](O)(C(=O)CO)C[C@@H]3O[C@H]1C[C@H](N)[C@H](O)[C@H](C)O1 [ADR, adriamycin, reference compound] | 7.85 ± 0.7 | – | – | – | – | – | – | – | – | – | – | – | – | – | – | – | – | – | – | – | –
2 | N.N.[Cl][Pt][Cl] [Cis-Pt, Cisplatin, reference compound] | – | 40.1 ± 13.9 | 28.5 ± 6.28 | – | – | – | – | – | – | – | – | – | – | – | – | – | – | – | – | – | –
3 | CCn1cc(C(=O)[O][Y]([OH])[O]C(=O)c2cn(CC)c3cc4c(cc3c2=O)OCO4)c(=O)c2cc3c(cc21)OCO3.O [Y oxo, [Y(oxo)(OH)(H2O)]] | – | 90.4 ± 9.3 | > 200 | 8.38 (±0.29) × 10^3 | 28.07 ± 4.44 | 33.2 ± 14.9 | 6.3 ± 2.47 | (2.04 ± 0.74) × 10^5 M^−1 | 1.52 ± 0.47 | 1.44 ± 0.03 | (10.53 ± 0.95) × 10^4 M^−1 | 1.053e+13 | 1.07 ± 0.05 | 4.40(±1.09) × 10^4 M^−1 | 1.58 ± 0.23 | 0.94 ± 0.01 | 6.52 (± 0.56) × 10^4 M^−1 | 6.52e+12 | 1.15 ± 0.07 | 8.34 ± 1.71 | Ksv (Stern-Volmer quenching constant, EB-DNA system) (EB-DNA system (CT-DNA); listed as Y-oxo): (8.38 ± 0.29) × 10^3; quenching effect on apo-Tf fluorescence peak (Apo-transferrin (apo-Tf); 1 µM apo-Tf, compound up to 8 µM, λex 295 nm): 35%; Ksv (Stern-Volmer constant), apo-Tf (Apo-transferrin (apo-Tf); 1 µM apo-Tf, listed as Y-oxo): (6.52 ± 0.56) × 10^4 M^−1; Ka (association binding constant), apo-Tf (Apo-transferrin (apo-Tf); listed as Y-oxo): (4.40 ± 1.09) × 10^4 M^−1
4 | CCn1cc(C(=O)O)c(=O)c2cc3c(cc21)OCO3 [oxo, 5-ethyl-5,8-dihydro-8-oxo-l,3 dioxolo[4,5-g]quinoline-7-carboxylic acid, reference compound] | 43.5 ± 4.94 | – | – | (1.05 ± 0.02) × 10^4 | 42.07 ± 18.48 | – | – | – | 1.62 ± 0.39 | 0.90 ± 0.01 | (1.95 ± 0.38) × 10^4 M^−1 | 1.95e+12 | 1.92 ± 0.35 | – | 1.89 ± 1.35 | 0.67 ± 0.00 | (17.45 ± 0.95) × 10^4 M^−1 | 1.745e+13 | 0.36±0.01 | – | IC50 ([2]; Homo sapiens, LoVo): > 200 µM; IC50 ([3]; Homo sapiens, HUVEC): > 200 µM; Ksv (Stern-Volmer constant), HSA ([5]; 2.5 µM HSA, listed as oxolinic acid): 1.95 (± 0.38) × 10^4 M^−1; Kd ([5]; Ka (association binding constant)): 92.6 µM; Kd ([5]; Kd): 7.26 ± 2.66 µM; Kd (Apo-transferrin (apo-Tf); Kd, apo-Tf): 8.11 ± 7.34 µM
5 | [Gd(oxo)(OH)(H2O)]·0.5H2O [Gd oxo] | – | 56.5 ± 3.83 | > 200 | (1.18 ± 0.01) × 10^4 | 47.75 ± 25.22 | 73.8 ± 18.5 | 5.32 ± 0.69 | (1.98 ± 0.82) × 10^5 M^−1 | 1.81 ± 0.26 | 1.06 ± 0.03 | (5.77 ± 0.84) × 10^4 M^−1 | 5.77e+12 | 1.39 ± 0.15 | (0.58 ± 0.25) × 10^4 M^−1 | 1.24 ± 0.45 | 0.76 ± 0.03 | (17.51 ± 1.06) × 10^4 M^−1 | 1.751e+13 | 0.73 ± 0.02 | 8.8 ± 6.57 | quenching effect on HSA fluorescence peak ([5]; 2.5 µM HSA, compound up to 8 µM, λex 280 nm): ~ 47%
